# Earlier results, collected in patent publication US20170258967A1, “COMPOSITIONS AND METHODS FOR DELIVERING AN AGENT TO A WOUND” (UNIVERSITY OF MEMPHIS RESEARCH FOUNDATION, priority 2014, published 2017).
# System: S. aureus
compound,measurement,value
"CCCCCCC/C=C\C(=O)O [Cis-2-decenoic acid, Cis-2-Decenoic Acid]",effect on S. aureus growth and biofilm formation,inhibit S. aureus growth and biofilm formation
